The numbers were not newly measured in patent US9333159B2, “Topical DNA repair composition” (PHOTOMEDEX, INC., priority 2011, dated 2016), which cites them from elsewhere.

For this data set the following is noted: known super antioxidants; USDA database value prevails where different.

`C[N+](C)(C)[C@@H](Cc1c[nH]c(=S)[nH]1)C(=O)[O-]` [ergothioneine]: the ORAC score was 61,000.
